This note sets out measurements from patent US11192852B2, “Pyrazolyl and pyrimidinyl tricyclic enones as antioxidant inflammation modulators” (REATA PHARMACEUTICALS, INC., priority 2010, dated 2021).

As a reminder, the IC50 is the midpoint of a concentration-inhibition curve.

The first assay relates to IFNγ-induced NO production in RAW264.7 mouse macrophages. Briefly: Suppression of IFNγ-induced nitric oxide production (Griess reagent). The assay is classed as cell-based. As to conditions: Mus musculus, RAW264.7, RAW264.7 cells, 2 h pre-treatment (0-200 nM), then IFNγ 24 h; normalized to cell viability. From the text: Nitric Oxide Production and Cell Viability.
For orientation: The Griess reaction detects nitrite, a stable product of nitric oxide.
In the case of `CC1(C)C(=O)C(C#N)=C[C@]2(C)c3nn(-c4[nH]nc5c4CC[C@H]4C(C)(C)C(=O)C(C#N)=C[C@]54C)cc3CC[C@H]12` [TX63466], the IC50 came to 0.0104 µM. With `Cc1cccc(-c2ncc3c(n2)[C@@]2(C)C=C(C#N)C(=O)C(C)(C)[C@@H]2CC3)c1` [TX63583], the concentration for half-maximal inhibition (IC50) was 0.033 µM. For `Cn1nc2c(c1-c1ccccc1)CC[C@H]1C(Cc3ccccc3)(Cc3ccccc3)C(=O)C(C#N)=C[C@]21C` [TX63601], the IC50 was 0.15 µM. For `Cc1nnc(-c2c3c(nn2C)[C@@]2(C)C=C(C#N)C(=O)[C@@H](C)[C@@H]2CC3)o1` [TX63857], the IC50 came out at 0.0063 µM. Take `Cn1nc2c(c1-c1cccc(Cl)c1)CC[C@H]1C(C)(C)C(=O)C(C#N)=C[C@]21C` [TX63485]: the IC50 was found to be 0.034 µM. With `Cc1nc(N2CCOCC2)c2c(n1)[C@@]1(C)C=C(C#N)C(=O)[C@@H](C)[C@@H]1CC2` [TX63758], the IC50 amounted to 0.055 µM.

On to `CC1(C)C(=O)C(C#N)=C[C@]2(C)c3c(cnc4c(Br)cnn34)CC[C@@H]12` [TX63615], for which the IC50 came to 0.052 µM. As to `CC1=C2CCc3c(nn(C)c3-c3cccc(F)c3)[C@@]2(C)C=C(C#N)C1=O` [TX63663], the half-maximal inhibitory concentration (IC50) amounted to 0.108 µM.

Turning to `C[C@@H]1C(=O)C(C#N)=C[C@]2(C)c3c(c(Br)nn3C)CC[C@@H]12` [TX63649], the half-maximal inhibitory concentration (IC50) turned out to be 0.021 µM.

Consider `CC1(C)C(=O)C(C#N)=C[C@]2(C)c3[nH]c(=O)ncc3CC[C@@H]12` [TX63553], for which the IC50 was over 0.2 µM. Turning to `C[C@@H]1C(=O)C(C#N)=C[C@]2(C)c3nn(C)c(-c4nnn(C)n4)c3CC[C@@H]12` [TX63719], the half-inhibitory concentration (IC50) came to 0.0059 µM. On to `CC1(C)C(=O)C(C#N)=C[C@]2(C)c3ncncc3CC[C@@H]12` [TX63542], for which the IC50 is 0.055 µM. Consider `Cn1nc2c(c1C(N)=O)CC[C@H]1C(C)(C)C(=O)C(C#N)=C[C@]21C` [TX63619], for which the 50% inhibitory concentration (IC50) was over 0.2 µM. On the same count and under the same terms, in the case of `CCCCNc1nc(C)nc2c1CC[C@H]1[C@H](C)C(=O)C(C#N)=C[C@]21C` [TX63827] it was 0.059 µM; in that of `COCO[C@H]1CCC[C@H]2C(C)(C)C(=O)C(C#N)=C[C@]12C` [TX63364], over 0.2 µM; in that of `CC1(C)C(=O)C(C#N)=C[C@]2(C)[C@@H](O)CCC[C@@H]12` [TX63363], over 0.2 µM. For `C[C@H]1C(=O)C(C#N)=C[C@@]2(C)c3nn(C)c(-c4ccccc4)c3CC[C@H]12` [TX63792], the IC50 was determined as 0.147 µM. With `CC1(C)C(=O)C(C#N)=C[C@]2(C)c3nn(C4CCCCC4)cc3CC[C@@H]12` [TX63444], the IC50 was 0.14 µM.

Regarding `Cn1nc2c(c1-c1ccc(Oc3ccccc3)cc1)CC[C@H]1C(C)(C)C(=O)C(C#N)=C[C@]21C` [TX63587], the half-maximal inhibitory concentration (IC50) stood at 0.04 µM.

Consider `Cn1ncc2c1[C@@]1(C)C=C(C#N)C(=O)C(C)(C)[C@@H]1CC2` [TX63342], for which the IC50 was 0.18 µM.

On to `CCOC(=O)c1c2c(nn1C)[C@@]1(C)C=C(C#N)C(=O)C(C)(C)[C@@H]1CC2` [TX63630], for which the IC50 stood at 0.038 µM. Take `C[C@@H]1C(=O)C(C#N)=C[C@]2(C)c3nn(C)c(C(=O)N(C)C)c3CC[C@@H]12` [TX63655]: the half-maximal inhibitory concentration (IC50) was over 0.2 µM. On the same count and under the same terms, in the case of `Cn1nc2c(c1-c1ccccc1)CC[C@H]1CC(=O)C=C[C@]21C` [TX63570] it was over 0.2 µM. On to `COc1nc(C)nc2c1CC[C@H]1[C@H](C)C(=O)C(C#N)=C[C@]21C` [TX63646], for which the IC50 is 0.0085 µM. With `C[C@@H]1C(=O)C(C#N)=C[C@]2(C)c3nn(C)cc3CC[C@@H]12` [TX63551], the IC50 was found to be 0.049 µM. Turning to `Cn1nc2c(c1NC(=O)OC(C)(C)C)CC[C@H]1C(C)(C)C(=O)C(C#N)=C[C@]21C` [TX63594], the IC50 was over 0.2 µM. Take `C[C@@H]1C(=O)C(C#N)=C[C@]2(C)c3nn(C)c(-c4cnn(C)c4)c3CC[C@@H]12` [TX63690]: the IC50 came to 0.011 µM.

For `Cn1nc2c(c1-c1nnn(Cc3ccccc3)n1)CC[C@H]1C(C)(C)C(=O)C(C#N)=C[C@]21C` [TX63729], the IC50 was 0.029 µM. On to `COc1ncnc2c1CC[C@H]1[C@H](C)C(=O)C(C#N)=C[C@]21C` [TX63874], for which the IC50 stood at 0.0055 µM. `CC1(C)C(=O)C(C#N)=C[C@]2(C)c3nn(-c4ccccc4)cc3CC[C@@H]12` [TX63455]: the half-inhibitory concentration (IC50) was 0.109 µM. On to `C[C@@H]1C(=O)C(C(F)(F)F)=C[C@]2(C)c3nn(C)c(-c4ccccc4)c3CC[C@@H]12` [TX63829], for which the concentration for half-maximal inhibition (IC50) is 0.022 µM.

As to `CC1(C)C(=O)C(C#N)=C[C@]2(C)c3nn(-c4ccccc4)c(-c4ccccc4)c3CC[C@@H]12` [TX63544], the IC50 is 0.039 µM. Still for that read-out and setting: the same measure for `CC(C)c1ncc2c(n1)[C@@]1(C)C=C(C#N)C(=O)C(C)(C)[C@@H]1CC2` [TX63534]: 0.049 µM. Same read-out and setting: the same measure for `C[C@@H]1C(=O)C(C#N)=C[C@]2(C)c3nn(C)c(-c4ccccc4)c3CC[C@@H]12` [TX63791]: 0.0023 µM. Same read-out and setting: the same measure for `C[C@@H]1C(=O)C(C#N)=C[C@]2(C)c3n[nH]c(-c4ccccc4)c3CC[C@@H]12` [TX63836]: 0.0061 µM; for `COc1ccc(-c2ncc3c(n2)[C@@]2(C)C=C(C#N)C(=O)C(C)(C)[C@@H]2CC3)cc1` [TX63590]: 0.031 µM. `Cc1nc(-c2ncc3c(n2)[C@@]2(C)C=C(C#N)C(=O)C(C)(C)[C@@H]2CC3)cs1` [TX63628]: the 50% inhibitory concentration (IC50) amounted to 0.062 µM. On to `CC1(C)C(=O)C(C#N)=C[C@]2(C)c3nc4c(Br)cnn4cc3CC[C@@H]12` [TX63617], for which the half-maximal inhibitory concentration (IC50) stood at 0.033 µM.

With `COc1nc(C(C)(C)C)nc2c1CC[C@H]1[C@H](C)C(=O)C(C#N)=C[C@]21C` [TX63853], the half-inhibitory concentration (IC50) turned out to be 0.031 µM. Same read-out and setting: in the case of `CNc1nc(C)nc2c1CC[C@H]1[C@H](C)C(=O)C(C#N)=C[C@]21C` [TX63852] it was 0.03 µM; in that of `CC1(C)C(=O)C(C#N)=C[C@]2(C)c3nc(C(F)(F)F)ncc3CC[C@@H]12` [TX63567], 0.043 µM. With `CCOc1nc(C)nc2c1CC[C@H]1[C@H](C)C(=O)C(C#N)=C[C@]21C` [TX63773], the concentration for half-maximal inhibition (IC50) was 0.006 µM. Turning to `CC1(C)C(=O)C(C#N)=C[C@]2(C)c3nc(-c4ccc(Cl)cc4)ncc3CC[C@@H]12` [TX63582], the IC50 was 0.033 µM. On to `Cn1nc2c(c1Br)CC[C@H]1C(C)(C)C(=O)C(C#N)=C[C@]21C` [TX63445], for which the half-maximal inhibitory concentration (IC50) came to 0.0379 µM.

For `C#Cc1c2c(nn1C)[C@@]1(C)C=C(C#N)C(=O)C(C)(C)[C@@H]1CC2` [TX63651], the IC50 came out at 0.023 µM.

Take `CCOC(=O)n1nc2c(c1-c1ccccc1)CC[C@H]1[C@H](C)C(=O)C(C#N)=C[C@]21C` [TX63871]: the IC50 was 0.0075 µM. On the same count and under the same terms, the same measure for `C[C@@H]1C(=O)C(C#N)=C[C@]2(C)c3nn(C)c(C#N)c3CC[C@@H]12` [TX63725]: 0.024 µM; for `COc1cccc(-c2c3c(nn2C)[C@@]2(C)C=C(C#N)C(=O)[C@@H](C)[C@@H]2CC3)c1` [TX63664]: 0.008 µM.

On to `CC1(C)C(=O)C(C#N)=C[C@]2(C)c3c(cnc4ccnn34)CC[C@@H]12` [TX63627], for which the IC50 amounted to 0.038 µM. Turning to `CC1(C)C(=O)C(C#N)=C[C@]2(C)c3nn(CCO)cc3CC[C@@H]12` [TX63464], the IC50 is over 0.2 µM.

The same assay, now with this note: RAW264.7 cells, 2 h pre-treatment (0-200 nM), then IFNγ 24 h; normalized to cell viability.
As for `Cn1cc2c(n1)[C@@]1(C)C=C(C#N)C(=O)C(C)(C)[C@@H]1CC2` [TX63432], the IC50 was determined as 0.166 µM.
